The source of these data is patent US20230348376A1 (TEIJIN PHARMA LIMITED, priority 2020, published 2023).

Some results are limits rather than exact numbers.

What is called EC50 is the concentration giving half of the maximal effect. Read a low EC50 as higher potency in that assay.

The subject of data set [1] is mouse neural stem cells (NSCs). Kind of data set: Promoting activity in oligodendrocyte differentiation of mouse neural stem cell (GalC immunostaining). In kind it is cell-based. The note with it: day 10, N=5. The procedure: To NSC basal medium (100 mL) included in this product, B27 (1 mL), Penicillin-Streptomycin (1 mL), Glutamine (1 mL), bFGF (20 μL), EGF (10 μL), and Heparin (100 μL) were added to prepare the growth medium. Mouse neural stem cells were reconstituted in a T-25 flask using the growth medium and proliferated as a neurosphere by suspension culture. The cells were expanded by passaging at a split ratio=1:2 in a CO2 incubator (5% CO2, 37° C., wet) to obtain the required number of cells. ACCUTASE (Innovative Cell Technologies, Cat. No. AT104) was used as the passage reagent.
The differentiation medium containing test substance was prepared to a target final concentration by diluting a solution of 20 mM compound in DMSO to 10-fold with DMSO and then to 2×10^5-fold with the differentiation medium. Additive-free differentiation medium for control was prepared by diluting DMSO to 2×10^5-fold with the differentiation medium to be a final concentration of 5×10^−5%.
The mouse neural stem cells were seeded on a poly-L-Lysine/Laminin-coated 96-well plate at a cell density of 2.0×10^4 cells/100 μL/well using the differentiation medium and the culture was started in a CO2 incubator (5% CO2, 37° C., wet). The next day, the medium was replaced with the differentiation medium containing a test substance or an additive-free differentiation medium for control, and evaluation of the test substance (N=5) was started (day 0). The medium was replaced every other day by 60% of the medium in the wells. On day 10, cells were fixed and immunostained.
After the medium was removed, the cells were fixed by adding 100 μL of 4% paraformaldehyde-PBS and being incubated at room temperature for 30 minutes. Next, the cells were washed 3 times with PBS, 100 μL of 5% Goat Serum/PBS was added thereto, and the mixture was incubated at room temperature for 30 minutes to perform blocking and membrane permeation treatment. […] After the cells were washed 3 times with PBS, 100 μL of PBS was added to the wells, and the wells were photographed with fluorescence microscopy. Images were taken under the same condition in all wells, and blue fluorescence and green fluorescence were simultaneously photographed.
Using the hybrid cell counting software provided in the fluorescence microscope (Keyence, BZ-X700), co-localized spots of green fluorescence and blue fluorescence were extracted, and the number of these spots was defined as the total number of GalC-positive cells, and the oligodendrocyte differentiation ratio was calculated by the following calculation:the total number of GalC-positive cells/the number of nuclei (number of blue fluorescence spots). A significant difference test was performed by t-test between the additive-free group and the sample-added group.

The test system of data set [2] is rat oligodendrocyte progenitor cells. Description: Promotive activity of rat oligodendrocyte progenitor cell differentiation-1 (MBP gene expression, mRNA). The note with it: Rattus norvegicus, Oligodendrocyte progenitor cell, 96 h, read-out: promotive activity at T3 base (MBP gene expression; DMSO 0%, T3 100%), 4 days, MBP/β actin mRNA. The class given is cell-based. In outline: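 Primary OPCs from 1-day-old SD rat forebrain, isolated by shaking off mixed glial cultures and seeded at 2×10^3 cells/well in B27/CNTF (10 ng/mL) differentiation medium with compound. MBP mRNA measured by one-step TaqMan real-time PCR and expressed as MBP/β-actin ratio.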

The next data set has as its target T1, human VDR (Homo sapiens, UniProt P11473).
T1 sequence (P11473 1-427): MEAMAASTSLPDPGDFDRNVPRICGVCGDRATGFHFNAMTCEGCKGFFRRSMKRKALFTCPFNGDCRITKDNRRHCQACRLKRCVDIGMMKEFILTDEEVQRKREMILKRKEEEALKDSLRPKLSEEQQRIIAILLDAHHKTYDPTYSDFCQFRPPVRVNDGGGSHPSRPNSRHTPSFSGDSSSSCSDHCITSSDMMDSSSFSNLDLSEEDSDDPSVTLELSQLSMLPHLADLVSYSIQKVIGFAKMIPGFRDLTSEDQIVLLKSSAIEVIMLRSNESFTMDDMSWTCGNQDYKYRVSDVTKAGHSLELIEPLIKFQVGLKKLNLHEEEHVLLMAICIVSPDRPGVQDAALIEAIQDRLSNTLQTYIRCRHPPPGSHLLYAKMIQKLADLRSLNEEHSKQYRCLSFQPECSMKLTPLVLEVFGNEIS
T1 sequence (P19793 1-462 partner): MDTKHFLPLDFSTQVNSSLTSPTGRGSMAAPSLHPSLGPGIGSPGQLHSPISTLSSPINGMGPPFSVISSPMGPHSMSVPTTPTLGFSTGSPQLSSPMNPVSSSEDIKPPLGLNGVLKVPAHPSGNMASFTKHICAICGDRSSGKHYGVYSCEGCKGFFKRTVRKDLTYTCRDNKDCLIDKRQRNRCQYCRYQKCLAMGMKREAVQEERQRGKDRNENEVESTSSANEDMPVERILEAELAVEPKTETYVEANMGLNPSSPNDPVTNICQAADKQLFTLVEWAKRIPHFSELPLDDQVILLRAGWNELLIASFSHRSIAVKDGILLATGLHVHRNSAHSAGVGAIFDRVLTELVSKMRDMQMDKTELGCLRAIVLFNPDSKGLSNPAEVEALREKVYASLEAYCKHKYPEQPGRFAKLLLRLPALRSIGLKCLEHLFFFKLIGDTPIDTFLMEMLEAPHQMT
Description: Evaluation of VDR transcription activity in human osteoblasts (HOS cells), luciferase reporter. The note with it: Activity (EC50, VDR transcription activity), HOS cells transfected with human VDR, human RXRα and DR3 luciferase reporter; 21 hours. (In general: Reporter assays use an easily measured gene product as a stand-in for the process of interest.)

Data set [3] concerns rat oligodendrocyte progenitor cells. Kind of data set: Promotive activity of rat oligodendrocyte progenitor cell differentiation-2 (immunostaining of MBP). In kind it is cell-based. The note with it: vitamin D derivative 2 μM, T3 30 nM, 4 days. In outline:
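Rat OPCs prepared by shaking in separation medium about 22 h at 37 °C, 200 rpm, and collecting the supernatant.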

The nature of data set [4]: Evaluation of calcium increasing action in normal mice (serum calcium). In kind it is in vivo, mouse. The note with it: for Serum calcium concentration: repeated oral once a day, 2 weeks, C57BL/6J mice; for Calcium concentration Fluctuation range: vs vehicle 8.9 mg/dL.
Description: After acclimatizing C57BL/6J mice (7 weeks old, male) for 1 week, the mice were divided into groups of 5 mice based on the body weight, and administration of the compound or vehicle was started. The administration solution used was a compound (in ethanol) or ethanol diluted 100-fold with 0.1% Trion X-100 (SIGMA #X100-100ML)/saline, and the repeated oral administration at once a day was performed. After administration of 2 weeks, euthanasia was performed by collecting all blood under general anesthesia.
Data set [5] is described as follows: Evaluation of brain penetration in mice (blood and brain concentration at brain Cmax). In kind it is in vivo, mouse. The note with it: 0.2 mg/kg single oral dose, C57BL/6J mice; for Concentration in blood at brain Cmax / Concentration in brain at brain Cmax: n=3; for Kp: male, C57BL/6J, mouse, brain/plasma, po, 0.2 mg/kg, read-out: Concentration ratio in brain/in blood at brain Cmax. In outline: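 Male C57BL/6J mice (8 weeks, n=3) dosed orally once at 1 […] mg/kg; plasma and brain collected at 0.25, 0.5, 1, 2, 4 and 8 h. Compound extracted with acetonitrile from brain homogenate and plasma, quantified by LC/MS/MS.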

`C[C@H](CCN1CCOC[C@@H]1C)[C@H]1CC[C@H]2/C(=C/C=C3C[C@@H](O)C[C@H](O)C3)CCC[C@]12C` [Compound D043, (1R,3R)-5-(2-((1R,3aS,7aR,E)-7a-methyl-1-((R)-4-((S)-3-methylmorpholino)butan-2-yl)octahydro-4H-inden-4-ylidene)ethylidene)cyclohexane-1,3-diol]: the results for the “Gal/C positive ratio Average value” in data set [1] (10 nM), in data set [1] (100 nM) and in data set [1] (1000 nM) were 12.81, 12.27 and 16.09, respectively. Also, the activation at 1 µM in data set [2] is no less than 20%.

With `C[C@H](CCCN1CCOCC1)[C@H]1CC[C@H]2/C(=C/C=C3C[C@@H](O)C[C@H](O)C3)CCC[C@]12C` [Compound D044, (1R,3R)-5-(2-((1R,3aS,7aR,E)-7a-methyl-1-((R)-5-morpholinopentan-2-yl)octahydro-4H-inden-4-ylidene)ethylidene)cyclohexane-1,3-diol], the EC50 on human VDR is 1 to 10 nM. For the same molecule, the entries for the “Gal/C positive ratio Average value” in data set [1] (10 nM), in data set [1] (100 nM) and in data set [1] (1000 nM) were 9.10, 8.22 and 12.37, respectively. Also, the activation at 1 µM in data set [2] is no less than 20%.

Take `C[C@H](CN1CCOCC1(C)C)[C@H]1CC[C@H]2/C(=C/C=C3C[C@@H](O)C[C@H](O)C3)CCC[C@]12C` [Compound G006, (1R,3R)-5-(2-((1R,3aS,7aR,E)-1-((S)-1-(3,3-dimethylmorpholino)propan-2-yl)-7a-methyloctahydro-4H-inden-4-ylidene)ethylidene)cyclohexane-1,3-diol]: in data set [3] (Test 4), the “Mean (number of MBP-positive cells/number of Hoechst33342-positive cells)” value is given as 0.50. Moreover, in data set [4] (20 μg/kg), the Serum calcium concentration came out at 8.9 mg/dL and the “Calcium concentration Fluctuation range” value was 0 mg/dL. In addition, in data set [4] (60 μg/kg), the Serum calcium concentration was 8.9 mg/dL and the “Calcium concentration Fluctuation range” value came to 0 mg/dL. For the same molecule, in data set [4] (200 μg/kg), the Serum calcium concentration is given as 8.6 mg/dL and the “Calcium concentration Fluctuation range” value is -0.3 mg/dL. For the same molecule, in data set [5], the “Concentration in blood at brain Cmax” value is recorded as 58.9 ± 0.5 nM, the “Concentration in brain at brain Cmax” value was found to be 137.8 ± 11.5 pmol/g and the Kp was determined as 2.38.

Regarding `C[C@H](CN1CCOC[C@@H]1C)[C@H]1CC[C@H]2/C(=C/C=C3C[C@@H](O)C[C@H](O)C3)CCC[C@]12C` [Compound G004, (1R,3R)-5-(2-((1R,3aS,7aR,E)-7a-methyl-1-((S)-1-((S)-3-methylmorpholino)propan-2-yl)octahydro-4H-inden-4-ylidene)ethylidene)cyclohexane-1,3-diol], the “Mean (number of MBP-positive cells/number of Hoechst33342-positive cells)” value in data set [3] (Test 3) is 0.27. Moreover, in data set [4] (20 μg/kg), the Serum calcium concentration was 8.9 mg/dL and the “Calcium concentration Fluctuation range” value is 0 mg/dL. Further, in data set [4] (60 μg/kg), the Serum calcium concentration came to 8.8 mg/dL and the “Calcium concentration Fluctuation range” value is -0.1 mg/dL. Also, in data set [4] (200 μg/kg), the Serum calcium concentration is on record as 9.0 mg/dL and the “Calcium concentration Fluctuation range” value came out at 0.1 mg/dL. Further, in data set [5], the “Concentration in blood at brain Cmax” value stood at 72.2 ± 10.4 nM, the “Concentration in brain at brain Cmax” value came out at 171.2 ± 37.4 pmol/g and the Kp was 2.35.
